Measured values: patent US20230099344A1, “COMPOUNDS AND METHODS FOR THE TARGETED DEGRADATION OF IRAK-4” (Arvinas Operations, Inc., priority 2021, published 2023)

Legend:
Type in all cases: cell-based
IL6 [1] = test: LPS stimulated IL6 inhibition assay in PBMC; conditions: Homo sapiens, PBMC, 24 h, human PBMCs, LPS stimulation, compound overnight, IL6 by MSD after 24 hrs; for Dmax: read-out: LPS Stim IL6 inhibition Dmax; for IC50: read-out: LPS stim IL6 inhibition IC50
In short: (§1)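 Read-out: MSD quantification of IL6 or IL8 in media collected 24 hrs after stimulation. Human PBMCs (2.0×10^6 cells/mL) received compound overnight before stimulant dosing at an EC50 concentration determined per donor.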

IL6 [2] = test: R848 stimulated IL6 inhibition assay in PBMC; conditions: PBMC, human PBMCs, R848 stimulation, compound overnight, IL6 by MSD after 24 hrs; for Dmax: Homo sapiens, 24 h, read-out: R848 stim IL6 inhibition Dmax; for IC50: read-out: R848 stim IL6 inhibition IC50
In short: as §1

IRAK-4 [3] = target: T1, IRAK-4 (Homo sapiens, UniProt Q9NWZ3); test: IRAK-4 ELISA, OCI-Ly10 degradation; set-up: endogenous in cells; conditions: treated overnight; for Dmax: OCI-Ly10, OCI-Ly10 cells; for DC50 / OCI-LY10 Dmax: OCI-Ly10 cells
T1 sequence (Q9NWZ3 1-460): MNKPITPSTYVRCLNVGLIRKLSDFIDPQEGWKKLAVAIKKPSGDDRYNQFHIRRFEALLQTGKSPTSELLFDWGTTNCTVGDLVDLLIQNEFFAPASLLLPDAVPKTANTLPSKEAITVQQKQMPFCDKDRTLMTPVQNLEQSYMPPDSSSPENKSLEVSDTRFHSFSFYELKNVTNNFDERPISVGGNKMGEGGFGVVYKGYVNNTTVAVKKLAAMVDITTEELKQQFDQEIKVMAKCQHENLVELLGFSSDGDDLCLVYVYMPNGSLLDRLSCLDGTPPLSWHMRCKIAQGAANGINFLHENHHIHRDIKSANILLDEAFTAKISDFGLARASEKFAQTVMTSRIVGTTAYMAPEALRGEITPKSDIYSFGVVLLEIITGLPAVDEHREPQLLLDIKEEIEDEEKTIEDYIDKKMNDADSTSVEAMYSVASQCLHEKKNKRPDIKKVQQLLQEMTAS
Protocol: Reagents: Human IRAK-4 Matched Antibody Pair Kit (Abcam ab218182) and ELISA Accessory Pack (Abcam ab210905).
Cell Treatment and Lysis:
1. OCI-Ly10: 200,000 cells are seeded at 1×10^6/ml in 96-well U-bottom plates 200 ul per well, treated with compound the same day. Incubate overnight. 2. PBMC: 800,000 cells are seeded at 2×10^6/ml in 96-well U-bottom deep-well plates, 400 ul per well, treated with compound the same day. Incubate overnight.
Cell lysate is collected and analyzed by ELISA for IRAK-4 levels.

IRAK-4 [4] = target: T1, IRAK-4; test: IRAK-4 ELISA, PBMC degradation; set-up: endogenous in cells; host or cells: PBMC; conditions: treated overnight
In short: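 Steps: seed cells (OCI-Ly10 1×10^6/ml; PBMC 2×10^6/ml); add compound the same day; incubate overnight; lyse; quantify IRAK-4 by matched-pair ELISA.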

Row | IC50 (IL6 [1]) | IC50 (IL6 [2]) | Dmax (IRAK-4 [3]) | DC50 (IRAK-4 [3]) | DC50 (IRAK-4 [4]) | Dmax (IRAK-4 [4]) | PBMC DC90 (IRAK-4 [4]) | OCI-LY10 Dmax (IRAK-4 [3]) | SMILES | Dmax (IL6 [1]) | Dmax (IL6 [2])
1 | 10 to 50 nM | 50 to 100 nM | ≥ 90% | 10 to 50 nM | < 1 nM | ≥ 90% | A (A represents a DC90 value <10.0 nM) | – | CC(C)Oc1cc2c(cc1NC(=O)c1cnn3cccnc13)CN(C1CCN(CC3(F)CN(c4ccc5c(c4)C(=O)N(C4CCC(=O)NC4=O)C5=O)C3)CC1)C2=O (stereo not shown) [Example 57, N-(2-(1-((1-(2-(2,6-dioxopiperidin-3-yl)-1,3-dioxoisoindolin-5-yl)-3-fluoroazetidin-3-yl)methyl)piperidin-4-yl)-6-isopropoxy-1-oxoisoindolin-5-yl)pyrazolo[1,5-a]pyrimidine-3-carboxamide] | 70 to 80% | ≥ 90%
2 | 10 to 50 nM | 10 to 50 nM | ≥ 90% | < 10 nM | < 1 nM | ≥ 90% | A (A represents a DC90 value <10.0 nM) | – | CC(C)Oc1cc2c(cc1NC(=O)c1cnn3cccnc13)CN(C1CCN(C(C)(C)C3CCN(c4ccc5c(c4)C(=O)N(C4CCC(=O)NC4=O)C5=O)CC3)CC1)C2=O (stereo not shown) [Example 82] | 70 to 80% | ≥ 90%
3 | – | – | ≥ 90% | 50 to 100 nM | 5 to 10 nM | 80 to 90% | D (D represents a DC90 value ≥50 nM) | – | CC(C)(C1CCN(c2ccc3c(c2)C(=O)N(C2CCC(=O)NC2=O)C3=O)CC1)N1CCC(N2Cc3cc(NC(=O)c4cnn5cccnc45)c(OCC4CC4)cc3C2=O)CC1 (stereo not shown) [Example 87] | – | –
4 | 10 to 50 nM | – | 80 to 90% | 50 to 100 nM | < 1 nM | ≥ 90% | A (A represents a DC90 value <10.0 nM) | – | O=C1CCC(N2C(=O)c3ccc(N4CCC(F)(CN5CCC(N6Cc7cc(NC(=O)c8cnn9cccnc89)c(OCC8CC8)cc7C6=O)CC5)CC4)cc3C2=O)C(=O)N1 (stereo not shown) [Example 88] | 70 to 80% | –
5 | – | – | ≥ 90% | 10 to 50 nM | < 1 nM | ≥ 90% | A (A represents a DC90 value <10.0 nM) | – | O=C1CCC(N2C(=O)c3ccc(N4CCN(CCN5CCC([C@H](F)CN6Cc7cc(NC(=O)c8cnn9cccnc89)c(N8CCOCC8)cc7C6=O)CC5)CC4)cc3C2=O)C(=O)N1 (stereo partly shown) [Example 93] | – | –
6 | – | – | 70 to 80% | 10 to 50 nM | 1 to 5 nM | ≥ 90% | A (A represents a DC90 value <10.0 nM) | – | O=C1CCC(N2C(=O)c3ccc(N4CCC(CN5CC[C@H](N6Cc7cc(NC(=O)c8cnn9cccnc89)c(N8CCOCC8)cc7C6=O)[C@@H](F)C5)CC4)cc3C2=O)C(=O)N1 (stereo partly shown) [Example 94] | – | –
7 | – | – | ≥ 90% | 10 to 50 nM | 5 to 10 nM | 70 to 80% | D (D represents a DC90 value ≥50 nM) | – | O=C1CCC(N2C(=O)c3ccc(N4CC(CN5CCC(N6Cc7cc(NC(=O)c8cnn9cccnc89)c(N8CCC(N9CCC9)CC8)cc7C6=O)CC5)C4)cc3C2=O)C(=O)N1 (stereo not shown) [Example 98] | – | –
8 | 10 to 50 nM | 10 to 50 nM | ≥ 90% | 10 to 50 nM | – | – | – | – | O=C1CCC(N2C(=O)c3ccc(N4CCC(CN5CCC(n6cc7cc(NC(=O)c8cnn9cc(Cl)cnc89)c(OCC8CC8)cc7n6)CC5)CC4)cc3C2=O)C(=O)N1 (stereo not shown) [Example 128] | 70 to 80% | 80 to 90%
9 | – | – | – | ≥ 100 nM | – | – | – | – | COc1cc2nn([C@H]3CC[C@@H](OC4CN(c5ccc6c(c5)C(=O)N(C5CCC(=O)NC5=O)C6=O)C4)CC3)cc2cc1NC(=O)c1cnn2cccnc12 (stereo partly shown) [Example 211] | – | –
10 | – | – | < 70% | ≥ 100 nM | – | – | – | – | COc1cc2nn(C[C@@H](F)COCC3CCN(c4ccc5c(c4)C(=O)N(C4CCC(=O)NC4=O)C5=O)CC3)cc2cc1NC(=O)c1cnn2cccnc12 (stereo partly shown) [Example 213] | – | –
11 | – | – | ≥ 90% | 10 to 50 nM | – | – | – | – | O=C1CCC(NC(=O)c2ccc(N3CCC(CN4CCC(n5cc6cc(NC(=O)c7cnn8cc(Cl)cnc78)c(OCC7CC7)cc6n5)CC4)CC3)cc2F)C(=O)N1 (stereo not shown) [Example 289] | – | –
12 | – | – | – | 50 to 100 nM | – | – | – | D (D represents a Dmax value <70) | O=C1CCC(NC(=O)c2ccc(N3CCC(CN4CCC(n5cc6cc(NC(=O)c7cnn8cccnc78)c(OCC7CC7)cc6n5)CC4)CC3)cc2F)C(=O)N1 (stereo not shown) [Example 290] | – | –
13 | – | – | 80 to 90% | 10 to 50 nM | – | – | – | – | COc1cc2nn(C3CCN(CC4CN(c5ccc(C(=O)NC6CCC(=O)NC6=O)c(F)c5)C4)CC3)cc2cc1NC(=O)c1cnn2cccnc12 (stereo not shown) [Example 294] | – | –
14 | – | – | ≥ 90% | 10 to 50 nM | – | – | – | – | COc1cc2nn(C3CCN(CC4CCN(c5ccc(C(=O)NC6CCC(=O)NC6=O)c(F)c5)CC4)CC3)cc2cc1NC(=O)c1cnn2cccnc12 (stereo not shown) [Example 295] | – | –
15 | – | – | ≥ 90% | 10 to 50 nM | – | – | – | – | O=C1CCC(NC(=O)c2ccc(N3CC(CN4CCC(n5cc6cc(NC(=O)c7cnn8cc(Cl)cnc78)c(OCC7CC7)cc6n5)CC4)C3)cc2F)C(=O)N1 (stereo not shown) [Example 299] | – | –
16 | – | – | – | ≥ 100 nM | – | – | – | – | COc1cc2nn([C@H]3CC[C@@H](N(C)C4CN(c5ccc6c(c5)C(=O)N(C5CCC(=O)NC5=O)C6=O)C4)CC3)cc2cc1NC(=O)c1cnn2cccnc12 (stereo partly shown) [Example 333] | – | –
17 | – | – | – | 10 to 50 nM | – | – | – | A (A represents a Dmax value ≥90) | COc1cc2nn([C@H]3CC[C@H](N(C)CC#Cc4ccc5c(c4)C(=O)N(C4CCC(=O)NC4=O)C5=O)CC3)cc2cc1NC(=O)c1cnn2cccnc12 (stereo partly shown) [Example 340] | – | –
18 | – | – | – | ≥ 100 nM | – | – | – | – | COc1cc2nn(C3CCN(CC4CN(c5ccc6c(c5)n(C)c(=O)n6C5CCC(=O)NC5=O)C4)CC3)cc2cc1NC(=O)c1cnn2cccnc12 (stereo not shown) [Example 380] | – | –
19 | – | – | 80 to 90% | 10 to 50 nM | – | – | – | – | CC(C)(O)c1cc2nn(C3CCN(CC4CN(c5ccc6c(c5)C(=O)N(C5CCC(=O)NC5=O)C6=O)C4)CC3)cc2cc1NC(=O)c1cnn2cc(Cl)cnc12 (stereo not shown) [Example 391, 6-chloro-N-(2-(1-((1-(2-(2,6-dioxopiperidin-3-yl)-1,3-dioxoisoindolin-5-yl)azetidin-3-yl)methyl)piperidin-4-yl)-6-(2-hydroxypropan-2-yl)-2H-indazol-5-yl)pyrazolo[1,5-a]pyrimidine-3-carboxamide] | – | –
20 | – | – | 70 to 80% | 50 to 100 nM | – | – | – | – | CC(C)(O)c1cc2nn(C3CCN(CC4CN(c5ccc6c(c5)C(=O)N(C5CCC(=O)NC5=O)C6=O)C4)CC3)cc2cc1NC(=O)c1cnn2cccnc12 (stereo not shown) [Example 392] | – | –
21 | – | – | 70 to 80% | ≥ 100 nM | – | – | – | – | O=C1CCC(N2C(=O)c3ccc(CCN4CCC(N5Cc6cc(NC(=O)c7cnn8cccnc78)c(N7CCOCC7)nc6C5=O)CC4)cc3C2=O)C(=O)N1 (stereo not shown) [Example 405] | – | –
22 | – | – | < 70% | 50 to 100 nM | – | – | – | – | O=C1CCC(N2C(=O)c3ccc(N4CC(CN5CCC(N6Cc7cc(NC(=O)c8cnn9cccnc89)c(N8CCOCC8)nc7C6=O)CC5)C4)cc3C2=O)C(=O)N1 (stereo not shown) [Example 406] | – | –

Row | SMILES | IC50 (IL6 [1]) | IC50 (IL6 [2]) | Dmax (IRAK-4 [3]) | DC50 (IRAK-4 [3]) | DC50 (IRAK-4 [4]) | Dmax (IRAK-4 [4]) | PBMC DC90 (IRAK-4 [4]) | OCI-LY10 Dmax (IRAK-4 [3]) | Dmax (IL6 [1]) | Dmax (IL6 [2])
23 | CC(C)Oc1cc2c(cc1NC(=O)c1cnn3cccnc13)CN(C1CCN(CC3(F)CCN(c4ccc5c(c4)C(=O)N(C4CCC(=O)NC4=O)C5=O)CC3)CC1)C2=O (stereo not shown) [Example 58] | – | – | ≥ 90% | 10 to 50 nM | 1 to 5 nM | ≥ 90% | B (B represents a DC90 value ≥10.0 nM and <25.0 nM) | – | – | –
24 | CC(C)Oc1cc2c(cc1NC(=O)c1cnn3cccnc13)CN([C@H]1CCN(CC3CCN(c4ccc5c(c4)C(=O)N(C4CCC(=O)NC4=O)C5=O)CC3)C[C@@H]1F)C2=O (stereo partly shown) [Example 91] | – | – | ≥ 90% | 10 to 50 nM | 1 to 5 nM | ≥ 90% | B (B represents a DC90 value ≥10.0 nM and <25.0 nM) | – | – | –
25 | O=C1CCC(N2C(=O)c3ccc(N4CCC(F)(CN5CCC(n6cc7cc(NC(=O)c8cnn9cccnc89)c(OCC8CC8)cc7n6)CC5)CC4)cc3C2=O)C(=O)N1 (stereo not shown) [Example 166] | – | – | ≥ 90% | 10 to 50 nM | 5 to 10 nM | ≥ 90% | C (C represents a DC90 value ≥25.0 nM and <50 nM) | – | – | –
